From US20240226125A1, “USE OF SOTAGLIFLOZIN FOR THE TREATMENT OF PATIENTS WITH TYPE 1 DIABETES MELLITUS” (priority 2019, published 2024)

Tested on: adult patients with Type 1 Diabetes Mellitus who have inadequate glycemic control with insulin therapy
Assay: inTandem 1 and inTandem 2 pooled double-blind placebo-controlled clinical studies, efficacy
Format: in vivo, human
Conditions: for HbA1c change from Baseline, Week 24 Treatment Comparison, LS Mean / HbA1c change from Baseline, Week 52 Treatment Comparison, LS Mean: optimized insulin
[1] = 200 mg vs placebo, Baseline BMI <27 kg/m^2, Week 24
[2] = 200 mg vs placebo, Baseline BMI <27 kg/m^2, Week 52
[3] = 200 mg vs placebo, Baseline BMI ≥27 kg/m^2, Week 24
[4] = 200 mg vs placebo, Baseline BMI ≥27 kg/m^2, Week 52
[5] = 200 mg, Baseline BMI <27 kg/m^2, Week 24
[6] = 200 mg, Baseline BMI <27 kg/m^2, Week 52
[7] = 200 mg, Baseline BMI ≥27 kg/m^2, Week 24
[8] = 200 mg, Baseline BMI ≥27 kg/m^2, Week 52
[9] = 400 mg vs placebo, Baseline BMI <27 kg/m^2, Week 24
[10] = 400 mg vs placebo, Baseline BMI <27 kg/m^2, Week 52
[11] = 400 mg vs placebo, Baseline BMI ≥27 kg/m^2, Week 24
[12] = 400 mg vs placebo, Baseline BMI ≥27 kg/m^2, Week 52
[13] = 400 mg, Baseline BMI <27 kg/m^2, Week 24
[14] = 400 mg, Baseline BMI <27 kg/m^2, Week 52
[15] = 400 mg, Baseline BMI ≥27 kg/m^2, Week 24
[16] = 400 mg, Baseline BMI ≥27 kg/m^2, Week 52

CCOc1ccc(Cc2cc([C@@H]3O[C@H](SC)[C@@H](O)[C@H](O)[C@H]3O)ccc2Cl)cc1 [sotagliflozin, (2S,3R,4R,5S,6R)-2-(4-chloro-3-(4-ethoxybenzyl)phenyl)-6-(methylthio)tetrahydro-2H-pyran-3,4,5-triol]
2-hour postprandial plasma glucose (mg/dL) LS Mean Difference (SE) [1]: −66.0 (20.22) mg/dL
A1C (%) LS Mean Difference (SE) [1]: −0.32 (0.062) %
Body weight (kg) LS Mean Difference (SE) [1]: −2.06 (0.240) kg
DDS2 (score) LS Mean Difference (SE) [1]: −0.4 (0.16) score
DTSQ (score) LS Mean Difference (SE) [1]: 1.7 (0.42) score
Fasting plasma glucose (mg/dL) LS Mean Difference (SE) [1]: −15.7 (5.69) mg/dL
SBP (mmHg) LS Mean Difference (SE) [1]: −3.1 (0.97) mmHg
Time in range (%) LS Mean Difference (SE) [1]: 1.638 (3.8450) %
A1C (%) LS Mean Difference (SE) [2]: −0.20 (0.078) %
Body weight (kg) LS Mean Difference (SE) [2]: −2.26 (0.317) kg
SBP (mmHg) LS Mean Difference (SE) [2]: −4.1 (1.05) mmHg
2-hour postprandial plasma glucose (mg/dL) LS Mean Difference (SE) [3]: −19.0 (14.71) mg/dL
A1C (%) LS Mean Difference (SE) [3]: −0.39 (0.046) %
Body weight (kg) LS Mean Difference (SE) [3]: −2.27 (0.272) kg
DDS2 (score) LS Mean Difference (SE) [3]: −0.6 (0.13) score
DTSQ (score) LS Mean Difference (SE) [3]: 2.6 (0.35) score
Fasting plasma glucose (mg/dL) LS Mean Difference (SE) [3]: −15.7 (4.57) mg/dL
SBP (mmHg) LS Mean Difference (SE) [3]: −1.3 (0.87) mmHg
Time in range (%) LS Mean Difference (SE) [3]: 8.171 (2.9713) %
A1C (%) LS Mean Difference (SE) [4]: −0.24 (0.056) %
Body weight (kg) LS Mean Difference (SE) [4]: −3.01 (0.357) kg
SBP (mmHg) LS Mean Difference (SE) [4]: −2.1 (0.90) mmHg
2-hour postprandial plasma glucose (mg/dL) LS Mean change (SE) [5]: −49.5 (17.63) mg/dL
A1C (%) LS Mean change (SE) [5]: −0.38 (0.047) %
Body weight (kg) LS Mean change (SE) [5]: −1.43 (0.177) kg
DDS2 (score) LS Mean change (SE) [5]: −0.2 (0.13) score
DTSQ (score) LS Mean change (SE) [5]: 1.7 (0.33) score
Fasting plasma glucose (mg/dL) LS Mean change (SE) [5]: −10.8 (4.22) mg/dL
SBP (mmHg) LS Mean change (SE) [5]: −3.0 (0.74) mmHg
Time in range (%) LS Mean change (SE) [5]: −0.532 (2.9540) %
A1C (%) LS Mean change (SE) [6]: −0.19 (0.057) %
Body weight (kg) LS Mean change (SE) [6]: −1.57 (0.230) kg
SBP (mmHg) LS Mean change (SE) [6]: −1.4 (0.79) mmHg
2-hour postprandial plasma glucose (mg/dL) LS Mean change (SE) [7]: −36.8 (11.72) mg/dL
A1C (%) LS Mean change (SE) [7]: −0.43 (0.034) %
Body weight (kg) LS Mean change (SE) [7]: −1.93 (0.196) kg
DDS2 (score) LS Mean change (SE) [7]: −0.5 (0.10) score
DTSQ (score) LS Mean change (SE) [7]: 2.3 (0.26) score
Fasting plasma glucose (mg/dL) LS Mean change (SE) [7]: −9.3 (3.33) mg/dL
SBP (mmHg) LS Mean change (SE) [7]: −2.9 (0.64) mmHg
Time in range (%) LS Mean change (SE) [7]: 6.254 (2.1983) %
A1C (%) LS Mean change (SE) [8]: −0.24 (0.041) %
Body weight (kg) LS Mean change (SE) [8]: −2.16 (0.254) kg
SBP (mmHg) LS Mean change (SE) [8]: −1.7 (0.66) mmHg
2-hour postprandial plasma glucose (mg/dL) LS Mean Difference (SE) [9]: −86.1 (21.27) mg/dL
A1C (%) LS Mean Difference (SE) [9]: −0.27 (0.063) %
Body weight (kg) LS Mean Difference (SE) [9]: −2.55 (0.243) kg
DDS2 (score) LS Mean Difference (SE) [9]: −0.5 (0.16) score
DTSQ (score) LS Mean Difference (SE) [9]: 1.5 (0.43) score
Fasting plasma glucose (mg/dL) LS Mean Difference (SE) [9]: −16.4 (5.78) mg/dL
SBP (mmHg) LS Mean Difference (SE) [9]: −3.5 (0.98) mmHg
Time in range (%) LS Mean Difference (SE) [9]: 6.335 (3.8492) %
A1C (%) LS Mean Difference (SE) [10]: −0.21 (0.079) %
Body weight (kg) LS Mean Difference (SE) [10]: −2.41 (0.324) kg
SBP (mmHg) LS Mean Difference (SE) [10]: −3.7 (1.08) mmHg
2-hour postprandial plasma glucose (mg/dL) LS Mean Difference (SE) [11]: −21.7 (13.93) mg/dL
A1C (%) LS Mean Difference (SE) [11]: −0.45 (0.045) %
Body weight (kg) LS Mean Difference (SE) [11]: −3.32 (0.270) kg
DDS2 (score) LS Mean Difference (SE) [11]: −0.7 (0.13) score
DTSQ (score) LS Mean Difference (SE) [11]: 2.6 (0.35) score
Fasting plasma glucose (mg/dL) LS Mean Difference (SE) [11]: −25.0 (4.53) mg/dL
SBP (mmHg) LS Mean Difference (SE) [11]: −2.5 (0.87) mmHg
Time in range (%) LS Mean Difference (SE) [11]: 15.051 (2.8562) %
A1C (%) LS Mean Difference (SE) [12]: −0.38 (0.055) %
Body weight (kg) LS Mean Difference (SE) [12]: −4.46 (0.353) kg
SBP (mmHg) LS Mean Difference (SE) [12]: −3.6 (0.89) mmHg
2-hour postprandial plasma glucose (mg/dL) LS Mean change (SE) [13]: −69.6 (17.34) mg/dL
A1C (%) LS Mean change (SE) [13]: −0.34 (0.048) %
Body weight (kg) LS Mean change (SE) [13]: −1.91 (0.181) kg
DDS2 (score) LS Mean change (SE) [13]: −0.4 (0.13) score
DTSQ (score) LS Mean change (SE) [13]: 1.5 (0.33) score
Fasting plasma glucose (mg/dL) LS Mean change (SE) [13]: −11.5 (4.32) mg/dL
SBP (mmHg) LS Mean change (SE) [13]: −3.4 (0.75) mmHg
Time in range (%) LS Mean change (SE) [13]: 4.164 (2.9683) %
A1C (%) LS Mean change (SE) [14]: −0.20 (0.057) %
Body weight (kg) LS Mean change (SE) [14]: −1.72 (0.238) kg
SBP (mmHg) LS Mean change (SE) [14]: −1.0 (0.81) mmHg
2-hour postprandial plasma glucose (mg/dL) LS Mean change (SE) [15]: −39.5 (10.72) mg/dL
A1C (%) LS Mean change (SE) [15]: −0.50 (0.034) %
Body weight (kg) LS Mean change (SE) [15]: −2.98 (0.193) kg
DDS2 (score) LS Mean change (SE) [15]: −0.5 (0.10) score
DTSQ (score) LS Mean change (SE) [15]: 2.2 (0.26) score
Fasting plasma glucose (mg/dL) LS Mean change (SE) [15]: −18.6 (3.28) mg/dL
SBP (mmHg) LS Mean change (SE) [15]: −4.0 (0.64) mmHg
Time in range (%) LS Mean change (SE) [15]: 13.133 (2.0244) %
A1C (%) LS Mean change (SE) [16]: −0.38 (0.040) %
Body weight (kg) LS Mean change (SE) [16]: −3.61 (0.249) kg
SBP (mmHg) LS Mean change (SE) [16]: −3.2 (0.65) mmHg
Weight, Percent Change from Baseline at Week 24, Treatment Comparison vs. PBO LS Mean (SE) (SOTA 200 mg vs PBO, Week 24): −2.17 (0.188), p < 0.001%
HbA1c change from Baseline, Week 24 Treatment Comparison, LS Mean (SOTA 200 mg vs PBO, Week 24): −0.36%
No Weight Gain at Week 52, HbA1c <7.0%: Absolute difference in % (SOTA vs. PBO) (SOTA 200 mg vs PBO, Week 52): 12.6%
No Weight Gain at Week 52, reduction in HbA1c ≥0.5%: Absolute difference in % (SOTA vs. PBO) (SOTA 200 mg vs PBO, Week 52): 14.9%
Weight, Percent Change from Baseline at Week 52, Treatment Comparison vs. PBO LS Mean (SE) (SOTA 200 mg vs PBO, Week 52): −3.21 (0.291), p < 0.001%
HbA1c change from Baseline, Week 52 Treatment Comparison, LS Mean (SOTA 200 mg vs PBO, Week 52): −0.23%
Weight, Percent Change (%) from Baseline at Week 24, LS Mean (SE) (SOTA 200 mg, Week 24): −1.70 (0.137), p < 0.001%
No Weight Gain at Week 52: Percentage HbA1c <7.0% (SOTA 200 mg, Week 52): 21.8%
No Weight Gain at Week 52: Percentage with absolute reduction in HbA1c ≥0.5% (SOTA 200 mg, Week 52): 23.7%
Weight, Percent Change (%) from Baseline at Week 52, LS Mean (SE) (SOTA 200 mg, Week 52): −2.31 (0.208), p < 0.001%
Weight, Percent Change from Baseline at Week 24, Treatment Comparison vs. PBO LS Mean (SE) (SOTA 400 mg vs PBO, Week 24): −3.02 (0.188), p < 0.001%
HbA1c change from Baseline, Week 24 Treatment Comparison, LS Mean (SOTA 400 mg vs PBO, Week 24): −0.38%
No Weight Gain at Week 52, HbA1c <7.0%: Absolute difference in % (SOTA vs. PBO) (SOTA 400 mg vs PBO, Week 52): 17.0%
No Weight Gain at Week 52, reduction in HbA1c ≥0.5%: Absolute difference in % (SOTA vs. PBO) (SOTA 400 mg vs PBO, Week 52): 20.0%
Weight, Percent Change from Baseline at Week 52, Treatment Comparison vs. PBO LS Mean (SE) (SOTA 400 mg vs PBO, Week 52): −4.24 (0.291), p < 0.001%
HbA1c change from Baseline, Week 52 Treatment Comparison, LS Mean (SOTA 400 mg vs PBO, Week 52): −0.32%
Weight, Percent Change (%) from Baseline at Week 24, LS Mean (SE) (SOTA 400 mg, Week 24): −2.55 (0.137), p < 0.001%
No Weight Gain at Week 52: Percentage HbA1c <7.0% (SOTA 400 mg, Week 52): 26.1%
No Weight Gain at Week 52: Percentage with absolute reduction in HbA1c ≥0.5% (SOTA 400 mg, Week 52): 28.8%
Weight, Percent Change (%) from Baseline at Week 52, LS Mean (SE) (SOTA 400 mg, Week 52): −3.33 (0.209), p < 0.001%
efficacy of sotagliflozin versus placebo by BMI subgroup (Week 24, BMI ≥27 kg/m^2 subgroups, A1C, body weight, time in range, DTSQ, DDS2): more pronounced
A1C levels compared to placebo (primary endpoint) (both doses, after core treatment period and long-term extension period): statistically significant lower A1C levels
